Paper PMC7931078 (Molecules, 2021)
In brackets after ≈: the same amount, converted by molar mass. Entries after “also recorded” stand apart in the source; their conditions may differ. Where two headings read alike, the source gives them in different places.

Assays:
[1] = system: 3D7 strain of Plasmodium falciparum; assay: In vitro antiplasmodial assay (pLDH); assay type: cell-based
[2] = system: Trypanosoma brucei brucei 427 trypomastigotes; assay: In vitro anti-trypanosomal assay; assay type: cell-based; details: 24 h, 427 strain, read-out: IC50 T. b. brucei
Protocol: Trypanosoma brucei brucei 427 trypomastigotes were cultured in iscove’s modified Dulbecco’s medium (IMDM; Lonza, Basel, Switzerland) supplemented with 10% fetal calf serum, HMI-9 supplement, hypoxanthine and penicillin/streptomycin at 37 °C in a 5% CO2 incubator. Serial dilutions of test compounds were incubated with the parasites in 96-well plates for 24 h and residual parasite viability in the wells determined as previously reported.

[3] = system: Mycobacterium tuberculosis pMSp12::GFP; assay: microbe, parasite or virus in culture; assay type: cell-based
[4] = system: HEK293 cells; assay: In vitro cytotoxicity assay; assay type: cell-based; details: Homo sapiens, HEK293, read-out: IC50 HEK293
[5] = system: S. aureus (MRSA); assay: microbe, parasite or virus in culture; assay type: cell-based; details: Staphylococcus aureus, read-out: MIC against S. aureus (MRSA)
[6] = system: ESKAPE (E. faecium, A. baumanni, K. pneumoniae, P. aeruginosa, S. aureus) pathogens; assay: Antibacterial broth microdilution, ESKAPE pathogens; assay type: cell-based; details: colistin and vancomycin as standards
[7] = system: A. baumanni; assay: Antibacterial broth microdilution, A. baumanni; assay type: cell-based; details: read-out: MIC against A. baumanni
[8] = Plasmodium falciparum, 3D7, 48 h, read-out: IC50 Pf 3D7, chloroquine sensitive strain 3D7, 48 h, pLDH
[9] = Mycobacterium tuberculosis, H37RV, 336 h
[10] = read-out: IC50 Pf 3D7, chloroquine sensitive strain 3D7, 48 h, pLDH

## CCn1cc(C(=O)NCCOCCO)c(=O)c2cc(OCc3ccc(C(F)(F)F)cc3)c(Cl)cc21 [Compound 8d, 7-Chloro-1-ethyl-N-(2-(2-hydroxyethoxy)ethyl)-4-oxo-6-((4-(trifluoromethyl)benzyl)oxy)-1,4-dihydroquinolone-3-carboxamide]
[1]; [8]
  IC50: > 20 µM
[2]; Trypanosoma brucei
  IC50: > 20 µM
[3]; [9]
  MIC90: > 125 µM
[4]
  IC50: > 32 µg/mL

## Cn1c(=O)c2c(ncn2Cc2ccc3c(c2)c(=O)c(C(=O)NCCOCCO)cn3Cc2ccc(Br)cc2)n(C)c1=O [Compound 4h, 1-(4-Bromobenzyl)-6-((1,3-dimethyl-2,6-dioxo-1,2,3,6-tetrahydro-7H-purin-7-yl)methyl)-N-(2-(2-hydroxyethoxy)ethyl)-4-oxo-1,4-dihydroquinolone-3-carboxamide]
[1]; [8]
  IC50: 0.68 µM
[2]; Trypanosoma brucei
  IC50: > 20 µM
[3]
  MIC90: >125 µM
[3]; [9]
  MIC90: > 125 µM
[4]
  IC50: > 32 µg/mL

## O=C(NCCOCCO)c1cn(Cc2ccccc2)c2cc(Cl)c(OCc3ccc(C(F)(F)F)cc3)cc2c1=O [Compound 8h, 1-Benzyl-7-chloro-N-(2-(2-hydroxyethoxy)ethyl)-4-oxo-6-((4-(trifluoromethyl)benzyl)oxy)-1,4-dihydroquinolone-3-carboxamide]
[1]; [8]
  IC50: > 20 µM
[2]; Trypanosoma brucei
  IC50: > 20 µM
[3]; [9]
  MIC90: 16 µM (≈ 9.2 µg/mL)
[4]
  IC50: > 32 µg/mL

## Cn1c(=O)c2c(ncn2Cc2ccc3c(c2)c(=O)c(C(=O)NCCNCCO)cn3Cc2ccccc2)n(C)c1=O [Compound 4d, 1-Benzyl-6-((1,3-dimethyl-2,6-dioxo-1,2,3,6-tetrahydro-7H-purin-7-yl)methyl)-N-(2-((2-hydroxyethyl)amino)ethyl)-4-oxo-1,4-dihydroquinolone-3-carboxamide]
[1]; [8]
  IC50: ≥ 25 µM
[1]; [10]
  IC50: > 20 µM
[2]; Trypanosoma brucei
  IC50: > 20 µM
[3]; [9]
  MIC90: 7.9 µM (≈ 4.41 µg/mL)
[4]
  IC50: > 32 µg/mL

## Cn1c(=O)c2c(ncn2Cc2ccc3c(c2)c(=O)c(C(=O)NCCNCCO)cn3Cc2ccc(Br)cc2)n(C)c1=O [Compound 4g, 1-(4-Bromobenzyl)-6-((1,3-dimethyl-2,6-dioxo-1,2,3,6-tetrahydro-7H-purin-7-yl)methyl)-N-(2-((2-hydroxyethyl)amino)ethyl)-4-oxo-1,4-dihydroquinolone-3-carboxamide]
[2]; Trypanosoma brucei
  IC50: > 20 µM
[3]; [9]
  MIC90: 7.9 µM (≈ 5.03 µg/mL)
[4]
  IC50: > 32 µg/mL

## Cn1c(=O)c2c(ncn2Cc2ccc3c(c2)c(=O)c(C(=O)NCCOCCO)cn3Cc2ccccc2)n(C)c1=O [Compound 4e, 1-Benzyl-6-((1,3-dimethyl-2,6-dioxo-1,2,3,6-tetrahydro-7H-purin-7-yl)methyl)-N-(2-(2-hydroxyethoxy)ethyl)-4-oxo-1,4-dihydroquinolone-3-carboxamide]
[1]; [8]
  IC50: ≥ 25 µM
[1]; [10]
  IC50: > 20 µM
[2]; Trypanosoma brucei
  IC50: 26.8 µM
[3]; [9]
  MIC90: > 125 µM
[4]
  IC50: > 32 µg/mL

## CCOC(=O)c1cn(Cc2ccc(Br)cc2)c2ccc(Cn3cnc4c3c(=O)n(C)c(=O)n4C)cc2c1=O [Compound 3d, Ethyl 1-(4-bromobenzyl)-6-((1,3-dimethyl-2,6-dioxo-1,2,3,6-tetrahydro-7H-purin-7-yl)methyl)-4-oxo-1,4-dihydroquinolone-3-carboxylate]
[1]; [8]
  IC50: 13.6 µM
[2]; Trypanosoma brucei
  IC50: 21.6 µM
[3]; [9]
  MIC90: 15.6 µM (≈ 9.02 µg/mL)
[4]
  IC50: > 32 µg/mL

## CCOC(=O)c1cn(Cc2ccccc2)c2ccc(Cn3cnc4c3c(=O)n(C)c(=O)n4C)cc2c1=O [Compound 3c, Ethyl 1-benzyl-6-((1,3-dimethyl-2,6-dioxo-1,2,3,6-tetrahydro-7H-purin-7-yl)methyl)-4-oxo-1,4-dihydroquinolone-3-carboxylate]
[1]; [8]
  IC50: > 20 µM
[2]; Trypanosoma brucei
  IC50: 14.5 µM
[3]; [9]
  MIC90: > 125 µM
[4]
  IC50: > 32 µg/mL

## CCn1cc(C(=O)NCCOCCO)c(=O)c2cc(Cn3cnc4c3c(=O)n(C)c(=O)n4C)ccc21 [Compound 4b, 6-((1,3-Dimethyl-2,6-dioxo-1,2,3,6-tetrahydro-7H-purin-7-yl)methyl)-1-ethyl-N-(2-(2-hydroxyethoxy)ethyl)-4-oxo-1,4-dihydroquinolone-3-carboxamide]
[1]; [8]
  IC50: > 20 µM
[2]; Trypanosoma brucei
  IC50: > 20 µM
[3]; [9]
  MIC90: > 125 µM
[4]
  IC50: > 32 µg/mL

## CCn1cc(C(=O)OC)c(=O)c2cc(C(=O)/C=C/c3c(Cl)cccc3Cl)ccc21 [Compound 16, Methyl (E)-Methyl-6-(3-(2,6-dichlorophenyl)acryloyl)-1-ethyl-4-oxo-1,4-dihydroquinolone-3-carboxylate]
[1]; [8]
  IC50: 11.7 µM
other
  melting point: 247 to 249 °C
[2]
  IC50: 1.5 µM
[2]; Trypanosoma brucei
  IC50: < 2 µM
[3]
  MIC90: 0.9 µM (≈ 0.387 µg/mL)
[3]; [9]
  MIC90: 0.9 to 2 µM (≈ 0.387 to 0.861 µg/mL)
[4]
  IC50: > 32 µg/mL

## CCn1cc(C(=O)NCCOCCO)c(=O)c2cc(OCc3ccc(C(F)(F)F)cc3)ccc21 [Compound 8a, 1-Ethyl-N-(2-(2-hydroxyethoxy)ethyl)-4-oxo-6-((4-(trifluoromethyl)benzyl)oxy)-1,4-dihydroquinolone-3-carboxamide]
[1]; [8]
  IC50: < 10 µM
[1]; [10]
  IC50: 6.8 µM
[2]; Trypanosoma brucei
  IC50: 14.1 µM
[3]; [9]
  MIC90: 7.8 µM (≈ 3.73 µg/mL)
[4]
  IC50: > 32 µg/mL

## CCn1cc(C(=O)NCCNCCO)c(=O)c2cc(Cn3cnc4c3c(=O)n(C)c(=O)n4C)ccc21 [Compound 4a, 6-((1,3-Dimethyl-2,6-dioxo-1,2,3,6-tetrahydro-7H-purin-7-yl)methyl)-1-ethyl-N-(2-((2-hydroxyethyl)amino)ethyl)-4-oxo-1,4-dihydroquinolone-3-carboxamide]
[1]; [8]
  IC50: > 20 µM
[2]; Trypanosoma brucei
  IC50: > 20 µM
[3]
  MIC90: >125 µM
[3]; [9]
  MIC90: > 125 µM
[4]
  IC50: > 32 µg/mL

## CCn1cc(C(=O)NCCNCCO)c(=O)c2cc(OCc3ccc(C(F)(F)F)cc3)c(Cl)cc21 [Compound 8c, 7-Chloro-1-ethyl-N-(2-((2-hydroxyethyl)amino)ethyl)-4-oxo-6-((4-(trifluoromethyl)benzyl)oxy)-1,4-dihydroquinolone-3-carboxamide]
[5]
  MIC: 16 µg/mL (≈ 31.3 µM)
[2]
  IC50: 1.5 µM
[2]; Trypanosoma brucei
  IC50: < 2 µM
[6]
  activity against ESKAPE pathogens (in words): moderate to poor activity; also recorded: moderate to weak, narrow spectrum activity
[7]
  MIC: 32 µg/mL (≈ 62.5 µM)
[4]
  IC50: > 32 µg/mL

## CCOC(=O)c1cn(CC)c2ccc([N+](=O)[O-])cc2c1=O [Compound 11, Ethyl 1-ethyl-6-nitro-4-oxo-1,4-dihydroquinolone-3-carboxylate]
[1]; [8]
  IC50: > 20 µM
[2]; Trypanosoma brucei
  IC50: > 20 µM
[3]; [9]
  MIC90: 31.3 µM (≈ 9.09 µg/mL)
[4]
  IC50: > 32 µg/mL

## CCOC(=O)c1cn(Cc2ccccc2)c2ccc(/N=C/c3ccc([N+](=O)[O-])o3)cc2c1=O [Compound 13, Ethyl-1-benzyl-6-(((5-nitrofuran-2-yl)methylene)amino)-4-oxo-1,4-dihydroquinolone-3-carboxylate]
[1]; [8]
  IC50: < 10 µM
[1]; [10]
  IC50: 6.5 µM
[2]; Trypanosoma brucei
  IC50: 5.2 µM
[6]
  activity against ESKAPE pathogens (in words): moderate to poor activity; also recorded: moderate to weak, narrow spectrum activity
[3]
  MIC90: 8.0 µM (≈ 3.56 µg/mL)
[3]; [9]
  MIC90: 8 µM (≈ 3.56 µg/mL)
[7]
  MIC: 16 µg/mL (≈ 35.9 µM)
[4]
  IC50: > 32 µg/mL

## Nc1ccc2c(c1)c(=O)c(C(=O)NCCOCCO)cn2Cc1ccccc1 [Compound 14, 6-Amino-1-benzyl-N-(2-(2-hydroxyethoxy)ethyl)-4-oxo-1,4-dihydroquinolone-3-carboxamide]
[1]; [8]
  IC50: > 20 µM
[1]; chloroquine sensitive strain 3D7, 48 h, pLDH
  IC50 Pf 3D7: complete loss of antiplasmodial activity
[2]; Trypanosoma brucei
  IC50: > 20 µM
[3]
  MIC90: >125 µM
[3]; [9]
  MIC90: > 125 µM
[4]
  IC50: > 32 µg/mL

## CCOC(=O)c1cn(CC)c2ccc(OCc3ccc(C(F)(F)F)cc3)cc2c1=O [Compound 7a, Ethyl 1-ethyl-4-oxo-6-((4-(trifluoromethyl)benzyl)oxy)-1,4-dihydroquinolone-3-carboxylate]
[2]; Trypanosoma brucei
  IC50: 18.5 µM
[3]; [9]
  MIC90: > 125 µM
[4]
  IC50: > 32 µg/mL

## O=C(NCCNCCO)c1cn(Cc2ccccc2)c2cc(Cl)c(OCc3ccc(C(F)(F)F)cc3)cc2c1=O [Compound 8g, 1-Benzyl-7-chloro-N-(2-((2-hydroxyethyl)amino)ethyl)-4-oxo-6-((4-(trifluoromethyl)benzyl)oxy)-1,4-dihydroquinolone-3-carboxamide]
[1]; [8]
  IC50: 0.4 µM
[1]; [10]
  IC50: 0.46 µM
[5]
  MIC: 32 µg/mL (≈ 55.7 µM)
[6]
  activity against ESKAPE pathogens (in words): moderate to poor activity; also recorded: moderate to weak, narrow spectrum activity
[3]
  MIC90: 0.9 µM (≈ 0.517 µg/mL)
[3]; [9]
  MIC90: 0.9 to 2 µM (≈ 0.517 to 1.15 µg/mL)
[4]
  IC50: > 32 µg/mL

## CCOC(=O)c1cn(CC)c2ccc(Cn3cnc4c3c(=O)n(C)c(=O)n4C)cc2c1=O [Compound 3a, Ethyl 6-((1,3-dimethyl-2,6-dioxo-1,2,3,6-tetrahydro-7H-purin-7-yl)methyl)-1-ethyl-4-oxo-1,4-dihydroquinolone-3-carboxylate]
[1]; [8]
  IC50: > 20 µM
[2]; Trypanosoma brucei
  IC50: > 20 µM
[3]
  MIC90: >125 µM
[3]; [9]
  MIC90: > 125 µM
[4]
  IC50: > 32 µg/mL

## CCOC(=O)c1cn(Cc2ccccc2)c2ccc(N)cc2c1=O [Compound 12, Ethyl 6-amino-1-benzyl-4-oxo-1,4-dihydroquinolone-3-carboxylate]
[1]; [8]
  IC50: 10 µM
[2]; Trypanosoma brucei
  IC50: > 20 µM
[3]; [9]
  MIC90: > 125 µM
[4]
  IC50: > 32 µg/mL

## COCCNC(=O)c1cn(Cc2ccccc2)c2ccc(Cn3cnc4c3c(=O)n(C)c(=O)n4C)cc2c1=O [Compound 4f, 1-Benzyl-6-((1,3-dimethyl-2,6-dioxo-1,2,3,6-tetrahydro-7H-purin-7-yl)methyl)-N-(2-methoxyethyl)-4-oxo-1,4-dihydroquinolone-3-carboxamide]
[1]; [8]
  IC50: > 20 µM
[2]; Trypanosoma brucei
  IC50: > 20 µM
[3]; [9]
  MIC90: > 125 µM
[4]
  IC50: > 32 µg/mL
